Measured values reported in paper PMC7012011, “In vitro inhibitory effects of dihydromyricetin on human liver cytochrome P450 enzymes” (Pharmaceutical Biology, 2017).

How the values were obtained:
CYP1A2 = target: T1, CYP1A2 (Homo sapiens, UniProt P05177); assay: CYP1A2 inhibition, phenacetin O-deethylation in pooled HLMs; assay type: in vitro ADME; settings: DHM 100 μM
T1 construct: from tissue; host or cells: pooled human liver microsomes
T1 sequence (P05177 1-516): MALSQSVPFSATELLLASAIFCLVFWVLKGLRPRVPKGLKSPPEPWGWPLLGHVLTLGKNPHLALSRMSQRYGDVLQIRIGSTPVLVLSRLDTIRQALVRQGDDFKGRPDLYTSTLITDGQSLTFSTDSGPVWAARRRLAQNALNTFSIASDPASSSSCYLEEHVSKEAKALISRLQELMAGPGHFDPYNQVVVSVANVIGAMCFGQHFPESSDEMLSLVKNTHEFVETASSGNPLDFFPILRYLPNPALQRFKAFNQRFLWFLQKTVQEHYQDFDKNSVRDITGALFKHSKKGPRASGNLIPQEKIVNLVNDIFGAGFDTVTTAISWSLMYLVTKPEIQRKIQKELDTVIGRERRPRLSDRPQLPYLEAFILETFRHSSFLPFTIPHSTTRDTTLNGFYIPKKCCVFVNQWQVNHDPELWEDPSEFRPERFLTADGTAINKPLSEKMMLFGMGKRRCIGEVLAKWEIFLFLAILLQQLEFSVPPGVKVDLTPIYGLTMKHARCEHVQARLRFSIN
Experimental: (§1) All incubations were performed in triplicate, and the mean values were utilized. The typical incubation systems contained 100 mM potassium phosphate buffer (pH 7.4), NADPH-generating system (1 mM NADP^+, 10 mM glucose-6-phosphate, 1 U/mL of glucose-6-phosphate dehydrogenase, and 4 mM MgCl2), the appropriate concentration of HLM, a corresponding probe substrate and DHM (or positive inhibitor for different probe reactions) in a final volume of 200 μL.
(§2) The concentration of DHM was 100 μM, and the positive inhibitor concentrations were as follows: 10 μM furafylline for CYP1A2, 1 μM ketoconazole for CYP3A4, 10 μM tranylcypromine for CYP2A6, 50 μM clomethiazole for CYP2E1, 10 μM quinidine for CYP2D6, 10 μM sulphaphenazole for CYP2C9, 50 μM tranylcypromine for CYP2C19 and 5 μM montelukast for CYP2C8. Probe substrates, positive inhibitors (except for dextromethorphan and quinidine which were dissolved in water) and DHM were dissolved in methanol, with a final concentration of 1% (v/v), and 1% neat methanol was added to the incubations without inhibitor. […] The instrument used in this study were Agilent 1260 series instrument with DAD and FLD detector (Agilent Technologies, Palo Alto, CA), and the quantitative assay for the corresponding metabolites was performed as previously reported by us (Zhang et al. [2016]). […]

CYP3A4 [1] = target: T2, CYP3A4 (Homo sapiens, UniProt P08684); assay: CYP3A4 inhibition, testosterone 6β-hydroxylation in pooled HLMs; assay type: in vitro ADME
T2 construct: CYP3A4 catalyzed reactions (testosterone 6β-hydroxylation) in pooled HLM; from tissue; host or cells: pooled human liver microsomes
Experimental: as §1
(§3) The concentration of DHM was 100 μM, and the positive inhibitor concentrations were as follows: 10 μM furafylline for CYP1A2, 1 μM ketoconazole for CYP3A4, 10 μM tranylcypromine for CYP2A6, 50 μM clomethiazole for CYP2E1, 10 μM quinidine for CYP2D6, 10 μM sulphaphenazole for CYP2C9, 50 μM tranylcypromine for CYP2C19 and 5 μM montelukast for CYP2C8. Probe substrates, positive inhibitors (except for dextromethorphan and quinidine which were dissolved in water) and DHM were dissolved in methanol, with a final concentration of 1% (v/v), and 1% neat methanol was added to the incubations without inhibitor. There was a 3-min preincubation period (at 37 °C) before the reaction was initiated by adding a NADPH-generating system. The reaction was terminated by adding a 100 μL acetonitrile (10% trichloroacetic acid for CYP2A6) internal standard mix, and the solution was placed on ice. The mixture was centrifuged at 12,000 rpm for 10 min, and an aliquot (50 μL) of supernatant was transferred for HPLC analysis. The instrument used in this study were Agilent 1260 series instrument with DAD and FLD detector (Agilent Technologies, Palo Alto, CA), and the quantitative assay for the corresponding metabolites was performed as previously reported by us (Zhang et al. [2016]).
(§4) A 100 μM DHM was used to initially screen for its direct inhibitory effects toward different human CYP isoforms. […] The residual activity of the CYP isoforms were measured by adding different concentrations of DHM (0–100 μM), and then the IC50 values were calculated. […]
(§5) The enzyme kinetic parameters for the probe reaction were estimated from the best fit line using least-squares linear regression of the inverse substrate concentration versus the inverse velocity (Lineweaver–Burk plots), and the mean values were used to calculate Vmax and Km. Inhibition data from the experiments that were conducted using multiple compound concentrations were represented by Dixon plots, and inhibition constant (Ki) values were calculated using non-linear regression according to the following equation: v=(VmaxS)/(Km(1+I/Ki)+S), where I is the concentration of the compound, Ki is the inhibition constant, S is the concentration of the substrate and Km is the substrate concentration at half the maximum velocity (Vmax) of the reaction. […]

CYP2A6 = target: T3, CYP2A6 (Homo sapiens, UniProt P11509); assay: CYP2A6 inhibition, coumarin 7-hydroxylation in pooled HLMs; assay type: in vitro ADME; settings: DHM 100 μM
T3 construct: from tissue; host or cells: pooled human liver microsomes
T3 sequence (P11509 1-494): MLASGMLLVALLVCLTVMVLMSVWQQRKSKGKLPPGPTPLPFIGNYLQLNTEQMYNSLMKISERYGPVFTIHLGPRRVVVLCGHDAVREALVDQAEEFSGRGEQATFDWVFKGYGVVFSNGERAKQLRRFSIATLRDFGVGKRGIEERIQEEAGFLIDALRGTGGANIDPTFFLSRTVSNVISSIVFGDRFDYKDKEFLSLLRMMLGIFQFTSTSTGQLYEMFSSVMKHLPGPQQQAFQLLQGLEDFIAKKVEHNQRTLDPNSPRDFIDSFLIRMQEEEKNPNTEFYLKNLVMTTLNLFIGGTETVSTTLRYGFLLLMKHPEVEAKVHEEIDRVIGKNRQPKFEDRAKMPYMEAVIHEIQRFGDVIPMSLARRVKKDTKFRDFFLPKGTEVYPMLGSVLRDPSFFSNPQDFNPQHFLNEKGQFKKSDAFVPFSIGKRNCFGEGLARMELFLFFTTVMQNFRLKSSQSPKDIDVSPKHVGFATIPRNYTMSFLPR
Experimental: as §1, §2

CYP2E1 [2] = target: T4, CYP2E1 (Homo sapiens, UniProt P05181); assay: CYP2E1 inhibition, chlorzoxazone 6-hydroxylation in pooled HLMs; assay type: in vitro ADME
T4 construct: CYP2E1 catalyzed reactions (chlorzoxazone 6-hydroxylation) in pooled HLM; from tissue; host or cells: pooled human liver microsomes

CYP2D6 [3] = target: T5, CYP2D6 (Homo sapiens, UniProt P10635); assay: CYP2D6 inhibition, dextromethorphan O-demethylation in pooled HLMs; assay type: in vitro ADME
T5 construct: CYP2D6 catalyzed reactions (dextromethorphan O-demethylation) in pooled HLM; from tissue; host or cells: pooled human liver microsomes
Experimental: as §1, §3, §4, §5

CYP2C9 = target: T6, CYP2C9 (Homo sapiens, UniProt P11712); assay: CYP2C9 inhibition, diclofenac 4'-hydroxylation in pooled HLMs; assay type: in vitro ADME; settings: DHM 100 μM
T6 construct: from tissue; host or cells: pooled human liver microsomes
Experimental: as §1, §2

CYP2C19 = target: T7, CYP2C19 (Homo sapiens, UniProt P33261); assay: CYP2C19 inhibition, S-mephenytoin 4-hydroxylation in pooled HLMs; assay type: in vitro ADME; settings: DHM 100 μM
T7 construct: from tissue; host or cells: pooled human liver microsomes
Experimental: as §1, §2

CYP2C8 = target: T8, CYP2C8 (Homo sapiens, UniProt P10632); assay: CYP2C8 inhibition, paclitaxel 6α-hydroxylation in pooled HLMs; assay type: in vitro ADME; settings: DHM 100 μM
T8 construct: from tissue; host or cells: pooled human liver microsomes
T8 sequence (P10632 1-490): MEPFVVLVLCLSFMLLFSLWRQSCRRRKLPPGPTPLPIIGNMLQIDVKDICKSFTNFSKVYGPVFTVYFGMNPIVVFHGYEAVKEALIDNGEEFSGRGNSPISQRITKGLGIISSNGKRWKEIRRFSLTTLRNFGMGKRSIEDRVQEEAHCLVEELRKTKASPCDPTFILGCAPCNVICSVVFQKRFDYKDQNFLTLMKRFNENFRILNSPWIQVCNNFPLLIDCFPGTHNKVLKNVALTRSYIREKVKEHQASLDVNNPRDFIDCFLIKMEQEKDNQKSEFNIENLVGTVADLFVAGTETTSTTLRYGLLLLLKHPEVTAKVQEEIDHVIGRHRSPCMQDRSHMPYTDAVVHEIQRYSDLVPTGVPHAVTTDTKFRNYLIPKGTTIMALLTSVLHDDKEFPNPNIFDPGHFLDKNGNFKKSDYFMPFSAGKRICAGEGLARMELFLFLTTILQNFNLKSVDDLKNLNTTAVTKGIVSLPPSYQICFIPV
Experimental: as §1, §2

CYP3A4 [4] = target: T2, CYP3A4; assay: Time-dependent inhibition study of CYP3A4 in HLMs; assay type: in vitro ADME
Experimental: (§6) To determine whether DHM could inhibit the activity of CYP3A4, CYP2E1 and CYP2D6 in a time-dependent manner, DHM (20 μM) was pre-incubated with HLMs (1 mg/mL) in the presence of an NADPH-generating system for 30 min at 37 °C. After incubation, an aliquot (20 μL) was transferred to another incubation tube (a final volume of 200 μL) containing an NADPH-generating system and probe substrates whose final concentrations were approximate to Km. Then, further incubations were performed to measure the residual activity. After being incubated for 10 and 30 min, the reactions were terminated by adding a 100 μL acetonitrile internal standard mix and then placed on ice; the corresponding metabolites was determined by HPLC.
To determine the KI and kinact values for the inactivation of CYP3A4, the incubations were conducted using higher probe substrate concentrations (approximately four-fold Km values) and various concentrations of DHM (0–50 μM) after different preincubation times (0–30 min), with a two-step incubation scheme, as described above.

CYP2E1 [5] = target: T4, CYP2E1; assay: Time-dependent inhibition study of CYP2E1 in HLMs; assay type: in vitro ADME; settings: DHM 20 μM, pre-incubation with HLM and NADPH for 30 min
Experimental: as §6

CYP2D6 [6] = target: T5, CYP2D6; assay: Time-dependent inhibition study of CYP2D6 in HLMs; assay type: in vitro ADME; settings: DHM 20 μM, pre-incubation with HLM and NADPH for 30 min
Experimental: as §6

[7] = set-up: method as in Zhang et al. [2007]; Tong et al. [2015]; settings: rats, oral administration of 1564.8 mg/kg of Rattan Tea decoction; ref Zhang et al. [2007]; Tong et al. [2015]; cited from earlier work

T5 sequence (P10635 whole entry): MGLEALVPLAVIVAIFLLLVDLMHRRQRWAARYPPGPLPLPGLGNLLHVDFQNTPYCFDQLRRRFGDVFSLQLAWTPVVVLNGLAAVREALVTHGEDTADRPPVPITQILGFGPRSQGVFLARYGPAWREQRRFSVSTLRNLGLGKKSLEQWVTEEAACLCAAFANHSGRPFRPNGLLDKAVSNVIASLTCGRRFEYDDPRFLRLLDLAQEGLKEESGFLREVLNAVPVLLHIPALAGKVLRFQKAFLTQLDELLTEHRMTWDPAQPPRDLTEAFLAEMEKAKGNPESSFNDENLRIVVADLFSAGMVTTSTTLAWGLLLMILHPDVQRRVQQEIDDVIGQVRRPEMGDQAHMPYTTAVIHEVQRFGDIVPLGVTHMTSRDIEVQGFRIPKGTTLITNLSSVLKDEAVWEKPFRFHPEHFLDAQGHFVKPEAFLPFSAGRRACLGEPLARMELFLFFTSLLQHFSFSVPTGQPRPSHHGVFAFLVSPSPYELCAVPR
T2 sequence (P08684 whole entry): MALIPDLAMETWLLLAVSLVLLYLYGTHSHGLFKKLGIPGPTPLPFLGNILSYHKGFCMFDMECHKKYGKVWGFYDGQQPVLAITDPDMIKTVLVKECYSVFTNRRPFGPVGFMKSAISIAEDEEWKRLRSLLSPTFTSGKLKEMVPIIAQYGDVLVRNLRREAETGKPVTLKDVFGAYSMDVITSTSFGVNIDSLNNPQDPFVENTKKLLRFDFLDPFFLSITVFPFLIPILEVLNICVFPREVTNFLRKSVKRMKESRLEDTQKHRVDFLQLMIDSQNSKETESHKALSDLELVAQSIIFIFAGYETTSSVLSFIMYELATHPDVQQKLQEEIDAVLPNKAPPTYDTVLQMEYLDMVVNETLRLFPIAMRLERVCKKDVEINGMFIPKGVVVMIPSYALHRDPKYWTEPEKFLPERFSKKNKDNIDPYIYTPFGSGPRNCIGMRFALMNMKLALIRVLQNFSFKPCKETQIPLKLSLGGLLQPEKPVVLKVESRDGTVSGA
T4 sequence (P05181 whole entry): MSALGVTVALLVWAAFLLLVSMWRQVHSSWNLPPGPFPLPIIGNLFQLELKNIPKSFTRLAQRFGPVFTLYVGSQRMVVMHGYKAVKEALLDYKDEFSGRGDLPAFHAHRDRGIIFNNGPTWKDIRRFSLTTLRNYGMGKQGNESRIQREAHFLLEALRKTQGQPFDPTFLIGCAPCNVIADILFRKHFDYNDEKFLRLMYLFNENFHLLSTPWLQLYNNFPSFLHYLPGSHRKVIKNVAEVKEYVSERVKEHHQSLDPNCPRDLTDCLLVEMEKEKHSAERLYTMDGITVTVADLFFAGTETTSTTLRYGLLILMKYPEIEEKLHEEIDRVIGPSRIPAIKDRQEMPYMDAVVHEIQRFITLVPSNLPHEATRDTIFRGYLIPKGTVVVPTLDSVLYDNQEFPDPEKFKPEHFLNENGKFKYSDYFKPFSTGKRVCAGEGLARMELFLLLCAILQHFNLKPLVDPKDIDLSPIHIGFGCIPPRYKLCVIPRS
T6 sequence (P11712 whole entry): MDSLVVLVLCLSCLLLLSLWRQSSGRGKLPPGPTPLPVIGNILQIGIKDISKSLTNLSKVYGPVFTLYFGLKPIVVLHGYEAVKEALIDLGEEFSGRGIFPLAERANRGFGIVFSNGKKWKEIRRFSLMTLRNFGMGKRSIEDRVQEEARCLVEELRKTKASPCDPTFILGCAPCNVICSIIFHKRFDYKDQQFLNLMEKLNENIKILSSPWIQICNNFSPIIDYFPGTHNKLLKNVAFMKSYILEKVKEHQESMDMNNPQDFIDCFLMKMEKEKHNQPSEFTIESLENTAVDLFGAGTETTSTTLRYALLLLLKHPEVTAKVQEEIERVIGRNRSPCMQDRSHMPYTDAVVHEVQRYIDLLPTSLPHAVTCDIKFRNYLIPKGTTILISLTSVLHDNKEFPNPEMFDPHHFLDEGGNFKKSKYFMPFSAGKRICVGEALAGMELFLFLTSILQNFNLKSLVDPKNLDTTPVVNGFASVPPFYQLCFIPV
T7 sequence (P33261 whole entry): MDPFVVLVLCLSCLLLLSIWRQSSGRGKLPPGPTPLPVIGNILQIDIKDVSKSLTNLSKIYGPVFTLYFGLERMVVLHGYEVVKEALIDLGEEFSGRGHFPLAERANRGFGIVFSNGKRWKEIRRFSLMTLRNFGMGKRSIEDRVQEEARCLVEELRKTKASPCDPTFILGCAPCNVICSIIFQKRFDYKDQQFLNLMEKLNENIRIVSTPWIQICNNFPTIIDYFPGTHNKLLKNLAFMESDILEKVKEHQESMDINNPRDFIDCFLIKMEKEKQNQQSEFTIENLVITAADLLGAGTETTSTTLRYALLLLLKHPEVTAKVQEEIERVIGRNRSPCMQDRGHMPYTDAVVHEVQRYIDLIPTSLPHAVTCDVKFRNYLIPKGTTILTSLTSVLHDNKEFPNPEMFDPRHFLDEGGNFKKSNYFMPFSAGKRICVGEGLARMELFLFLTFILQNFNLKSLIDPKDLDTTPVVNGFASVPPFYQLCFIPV

Structure (SMILES): O=C1c2c(O)cc(O)cc2O[C@H](c2cc(O)c(O)c(O)c2)[C@H]1O [DHM, Dihydromyricetin]
- Inhibition of CYP1A2 activity (CYP1A2): did not inhibit
- IC50 (CYP3A4 [1]; DHM 0–100 μM, pooled HLMs): 14.8 µM
- Manner of inhibition of CYP3A4 (CYP3A4 [1]; Lineweaver–Burk plots): non-competitive
- inhibition at 100 μM (CYP3A4 [1]; human, pooled human liver microsomes, pH 7.4, probe testosterone (6β-hydroxylation), DHM 100 μM, pooled HLMs, read-out: CYP3A4 activity inhibited to % of control activity): 87.7%
- Ki (CYP3A4 [1]; secondary Lineweaver–Burk plot, testosterone 20–100 μM, pooled HLM): 6.06 µM
- Inhibition of CYP2A6 activity (CYP2A6): did not inhibit
- IC50 (CYP2E1 [2]; DHM 0–100 μM, pooled HLMs): 25.7 µM
- Manner of inhibition of CYP2E1 (CYP2E1 [2]; Lineweaver–Burk plots): competitive
- inhibition at 100 μM (CYP2E1 [2]; human, pooled human liver microsomes, pH 7.4, probe chlorzoxazone (6-hydroxylation), DHM 100 μM, pooled HLMs, read-out: CYP2E1 activity inhibited to % of control activity): 74.6%
- Ki (CYP2E1 [2]; secondary Lineweaver–Burk plot, chlorzoxazone, DHM 0–50 μM, pooled HLM): 9.24 µM
- IC50 (CYP2D6 [3]; DHM 0–100 μM, pooled HLMs): 22.7 µM
- Manner of inhibition of CYP2D6 (CYP2D6 [3]; Lineweaver–Burk plots): competitive
- inhibition at 100 μM (CYP2D6 [3]; human, pooled human liver microsomes, pH 7.4, probe dextromethorphan (O-demethylation), DHM 100 μM, pooled HLMs, read-out: CYP2D6 activity inhibited to % of control activity): 85.3%
- Ki (CYP2D6 [3]; secondary Lineweaver–Burk plot, dextromethorphan 5–50 μM, DHM 0–50 μM, pooled HLM): 10.5 µM
- Inhibition of CYP2C9 activity (CYP2C9): did not inhibit
- Inhibition of CYP2C19 activity (CYP2C19): did not inhibit
- Inhibition of CYP2C8 activity (CYP2C8): did not inhibit
- Time-dependent inhibition: activity of CYP3A4 after pre-incubation (CYP3A4 [4]; DHM 20 μM, pre-incubation with HLM and NADPH for 30 min): decreased with the incubation time
- KI (inactivation) (CYP3A4 [4]; human, human liver microsomes, DHM 0–50 μM, preincubation 0–30 min, non-linear regression, HLM): 12.2 µM
- kinact (CYP3A4 [4]; human, human liver microsomes, DHM 0–50 μM, preincubation 0–30 min, non-linear regression, HLM, read-out: Kinact for inactivation of CYP3A4 (converted)): 0.00095 s⁻¹
- CYP3A4 inactivated each minute (CYP3A4 [4]; saturating concentration of DHM incubated with HLM, implied by Kinact): approximately 5.7%
- Time-dependent inhibition: activity of CYP2E1 after pre-incubation (CYP2E1 [5]): not affected
- Time-dependent inhibition: activity of CYP2D6 after pre-incubation (CYP2D6 [6]): not affected
- Cmax [7]: 1700 ng/mL
